Series [1] concerns patients with mild to moderate hypertension, hyperlipidemia and diabetes mellitus. The series is described as follows: 14-week open-label forced dose-escalation study of P5P in hypertensive diabetics (concomitant statin). Type of series: in vivo, human. The settings on record: individual patient; for Chol:HDL ratio V.1 / HDL cholesterol V.1 / Total cholesterol V.1 / Triglycerides V.1 / LDL cholesterol V.1: V1: 1st visit, Week One, Day 1, on statin; for Triglycerides V.12 / Chol:HDL ratio V.12 / HDL cholesterol V.12 / Total cholesterol V.12 / LDL cholesterol V.12: V12: Last Visit, Week 14, Day 98; for Triglycerides V.12: concomitant P5P (250 to 750 mg once daily) and statin; for Chol:HDL ratio V.12 / HDL cholesterol V.12 / Total cholesterol V.12 / LDL cholesterol V.12: concomitant P5P and statin. An excerpt: Patient Definition-Patients meeting all of the inclusion criteria and none of the exclusion criteria were eligible for enrollment. The primary inclusion criteria were hypertension and diabetes. At screening all patients must present with or have a history of, uncomplicated, stable, mild to moderate hypertension, (supine diastolic blood pressure SUDBP ≧90 and ≦114 mm Hg) regardless of use or non-use of treatment for this disease. […] The hypertensive patients must present with and have a history (>24 months) of diabetes mellitus (type 1 or 2), that is controlled or uncontrolled, at both screening and treatment initiation visits, to be eligible for inclusion in the study. Other than having diabetes and hypertension, patients must be in good health for their age. A history and physical examination must be within age-related normal limits, or if abnormal, considered clinically insignificant in the opinion of the investigator. Laboratory tests (CBC with differential, prothrombin and partial thrombo-plastin times, platelet count, and urinalysis and blood chemistry panel), must be normal, or if abnormal, considered clinically insignificant. Patients must have a normal ECG or, if abnormal, considered clinically insignificant. […] Essentially, all patients complete a fixed four-week placebo lead-in, to qualify for initiation of active treatment. Eligible patients then begin treatment with 250 mg/day of […]. This dose was administered orally on a daily basis for the next two (2) weeks, subject to dose-limiting side-effects, after which patients are force-titrated to 500 mg/day of […]. […] Thereafter, and for the final four (4) weeks of the study all patients were treated with placebo medication. […] Patients who were on anti-lipid medication prior to the initiation of the study continued their anti-lipid regime throughout the study. Primary Efficacy Evaluations • Supine diastolic blood pressure (SUDBP) measured at specified intervals; • Triglyceride, total cholesterol, LDL cholesterol, and HDL levels measured at specified intervals. […] Dosage Regimens-All patients receive treatment medication once daily, in the morning one hour before breakfast. At each dosing, the prescribed number of tablets will be taken orally, with water, to allow for the following dosing levels: The first dose of study medication is administered at clinic under the supervision of clinic personnel. Patients previously on anti-lipid therapy continued their anti-lipid regime unchanged throughout the study.

Series [2] has as its target T1, CYP2E1 (Homo sapiens, UniProt P05181).
T1 construct: purchased Gentest Corp; host or cells: insect cells (baculovirus)
The series can be described thus: CYP2E1 inhibition assay (substrate MFC). Format: in vitro ADME. How it is done:
All determinations were performed in duplicate.

Series [3] deals with T2, CYP2A6 (Homo sapiens, UniProt P11509).
T2 sequence (P11509 1-494): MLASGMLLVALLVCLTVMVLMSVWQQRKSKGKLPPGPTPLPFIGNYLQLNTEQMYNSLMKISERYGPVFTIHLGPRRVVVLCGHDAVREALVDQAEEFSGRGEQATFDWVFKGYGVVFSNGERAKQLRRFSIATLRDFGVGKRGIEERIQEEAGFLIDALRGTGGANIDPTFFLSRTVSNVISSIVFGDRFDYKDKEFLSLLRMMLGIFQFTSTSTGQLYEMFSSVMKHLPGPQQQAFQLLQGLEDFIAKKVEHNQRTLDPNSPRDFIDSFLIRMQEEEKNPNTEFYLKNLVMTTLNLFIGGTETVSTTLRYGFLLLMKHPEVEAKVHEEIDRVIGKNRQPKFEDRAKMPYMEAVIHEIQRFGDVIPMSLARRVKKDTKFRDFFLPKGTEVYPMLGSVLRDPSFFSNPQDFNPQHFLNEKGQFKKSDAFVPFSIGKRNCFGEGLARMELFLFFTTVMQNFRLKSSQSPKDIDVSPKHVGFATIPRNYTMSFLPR
The series can be described thus: CYP2A6 inhibition assay (substrate coumarin). An excerpt: (§1) The CYP inhibition assays used microsomes (Supersomes®, Gentest Corp., Woburn, Mass.) prepared from insect cells, each expressing an individual CYP subtype (CYP1A2, CYP2A6, CYP2B6, CYP2C8, CYP2C9, CYP2C19, CYP2D6, CYP2E1 or CYP3A4) expressed from the corresponding human CYP cDNA using a baculovirus expression vector. The microsomes also incorporated supplemental cDNA-expressed human reductase and/or cytochrome b5, as these enzymes stimulate the activity of the CYPs, allowing for a reduction in the amount of enzyme required per reaction (Gentest Corp.). The assays monitored, via fluorescence detection, the formation of a fluorescent metabolite following incubation of the microsomes with a specific CYP substrate. […] Reactions (0.2 mL) were performed in 96-well microtitre plates at 37° C. in the presence of an NADPH regenerating system [NADP+, glucose-6-phosphate (G6P), glucose-6-phosphate dehydrogenase (G6PDH)] and MgCl2. […] All determinations were performed in duplicate. The reagent solutions used for all of the CYP subtype assays, except CYP2C19 and CYP3A4, were prepared by MBDI. For CYP2C19 and CYP3A4, complete reagent kits purchased from Gentest Corp. (CYP2C19/CEC: Cat. No. HTS-4000, Lot No. 1; CYP3A4/BFC: Cat. No. HTS-1000, Lot No. 1) were used to perform the assays.
(§2) Eight inhibitor and test compound concentrations were tested using 3-fold serial dilutions. The microtitre plates containing 0.1 mL/well of the latter mixture were pre-warmed to 37° C. in an incubator. […] The amount of metabolic product formed was quantified by fluorescence detection in a fluorescence plate reader utilizing excitation and emission filters that had been optimized for the detection of each metabolite.
(§3) Data Analysis—The mean of the duplicate fluorescent signals in the presence and absence (vehicle control) of each compound was calculated and corrected for the background noise. Percent inhibition was calculated as the difference in the corrected fluorescent signals in the absence and presence of the compound, divided by the corrected fluorescent signal in the absence of compound, multiplied by 100%.

Series [4] deals with T3, CYP2B6 (Homo sapiens, UniProt P20813).
T3 sequence (P20813 1-491): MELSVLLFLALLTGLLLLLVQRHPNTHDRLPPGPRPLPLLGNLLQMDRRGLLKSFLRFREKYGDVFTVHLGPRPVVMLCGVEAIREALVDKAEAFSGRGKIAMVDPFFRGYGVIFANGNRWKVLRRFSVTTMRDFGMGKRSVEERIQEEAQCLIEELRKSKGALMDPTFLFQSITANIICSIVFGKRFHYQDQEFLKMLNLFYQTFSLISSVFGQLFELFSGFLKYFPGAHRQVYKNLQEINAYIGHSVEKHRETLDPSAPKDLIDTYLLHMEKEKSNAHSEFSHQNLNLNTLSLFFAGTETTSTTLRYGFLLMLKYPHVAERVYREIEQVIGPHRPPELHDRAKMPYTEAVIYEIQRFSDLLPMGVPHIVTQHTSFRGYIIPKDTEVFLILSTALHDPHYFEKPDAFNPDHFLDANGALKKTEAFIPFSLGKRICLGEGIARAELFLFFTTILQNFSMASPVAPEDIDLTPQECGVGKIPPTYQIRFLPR
The series is described as follows: CYP2B6 inhibition assay (substrate EFC).
From the text: as §1, §2, §3

Setting [5] is: read-out: Observed Inhibitor IC50.
Setting [6] is: read-out: Expected Inhibitor IC50, value expected from assay validation (mean ± S.D., n ≧ 8 experiments).

Several values for one entry are separate records, joined by “and”; a condition that tells them apart may be missing. Equal values may be shown once. Read-outs that look alike come from different tables or passages of the source.

T1 sequence (P05181 whole entry): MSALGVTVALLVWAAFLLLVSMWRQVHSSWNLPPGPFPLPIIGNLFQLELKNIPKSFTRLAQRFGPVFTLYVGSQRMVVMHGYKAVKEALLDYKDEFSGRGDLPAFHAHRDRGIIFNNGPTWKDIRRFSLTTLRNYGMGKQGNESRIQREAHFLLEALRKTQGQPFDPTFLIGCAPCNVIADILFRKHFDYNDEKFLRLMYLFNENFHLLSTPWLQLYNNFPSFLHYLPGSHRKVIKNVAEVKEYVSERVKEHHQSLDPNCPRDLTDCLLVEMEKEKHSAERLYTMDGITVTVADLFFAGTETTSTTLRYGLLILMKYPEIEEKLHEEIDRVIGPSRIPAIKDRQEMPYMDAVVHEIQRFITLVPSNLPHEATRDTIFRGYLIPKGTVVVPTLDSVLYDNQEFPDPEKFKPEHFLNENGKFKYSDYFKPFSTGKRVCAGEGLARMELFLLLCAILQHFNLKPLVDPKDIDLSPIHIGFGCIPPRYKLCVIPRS

`CC[C@H](C)C(=O)O[C@H]1C[C@H](O)C=C2C=C[C@H](C)[C@H](CC[C@@H](O)C[C@@H](O)CC(=O)O)[C@H]21` [Pravachol, pravastatin]: in series [1], the “Chol:HDL ratio V.1” value was found to be 9.5, the “HDL cholesterol V.1” value is reported as 33 mg/dL, the “Total cholesterol V.1” value worked out at 313 mg/dL and the “Triglycerides V.1” value was found to be 667 mg/dL. Moreover, in series [1], the “Triglycerides V.12” value is on record as 365 mg/dL, the “Chol:HDL ratio V.12” value stood at 8.4, the “HDL cholesterol V.12” value stood at 29 mg/dL and the “Total cholesterol V.12” value is 243 mg/dL.

For `CCC(C)(C)C(=O)O[C@H]1C[C@@H](C)C=C2C=C[C@H](C)[C@H](CC[C@@H]3C[C@@H](O)CC(=O)O3)[C@H]21` [Zocor, simvastatin], in series [1], the “Chol:HDL ratio V.1” value is 3.9 and 6.3; the “HDL cholesterol V.1” value is 39 mg/dL and 43 mg/dL; the “LDL cholesterol V.1” value was 80 mg/dL and 185 mg/dL; the “Total cholesterol V.1” value was 152 mg/dL and 272 mg/dL. In addition, in series [1], the “Triglycerides V.1” value was 164 mg/dL and 222 mg/dL; the “Triglycerides V.12” value is 212 mg/dL and 187 mg/dL; the “Chol:HDL ratio V.12” value was 4.1 and 5.8; the “HDL cholesterol V.12” value was 35 mg/dL and 40 mg/dL. Also, in series [1], the “LDL cholesterol V.12” value is 68 mg/dL and 153 mg/dL; the “Total cholesterol V.12” value was 145 mg/dL and 230 mg/dL.

Consider `CCN(CC)C(=S)S` [DDTC, Diethyldithiocarbamic acid], for which the IC50 in series [2] (setting [5]) is 3.56 µM; in series [2] (value expected from assay validation (mean ± S.D., n ≧ 8 experiments), read-out: Expected Inhibitor IC50), 5.06 ± 1.96 µM.

As to `CC(C)c1c(C(=O)Nc2ccccc2)c(-c2ccccc2)c(-c2ccc(F)cc2)n1CC[C@@H](O)C[C@@H](O)CC(=O)O` [Lipitor, atorvastatin], in series [1], the “Chol:HDL ratio V.1” value was 5.0 and 2.2; the “HDL cholesterol V.1” value is 43 mg/dL and 62 mg/dL; the “LDL cholesterol V.1” value is 123 mg/dL and 55 mg/dL; the “Total cholesterol V.1” value is 217 mg/dL and 136 mg/dL. Also, in series [1], the “Triglycerides V.1” value was 255 mg/dL and 96 mg/dL; the “Triglycerides V.12” value is 179 mg/dL and 106 mg/dL; the “Chol:HDL ratio V.12” value is 5.6 and 2.1; the “HDL cholesterol V.12” value was 48 mg/dL and 75 mg/dL. Moreover, in series [1], the “LDL cholesterol V.12” value was 183 mg/dL and 63 mg/dL; the “Total cholesterol V.12” value was 267 mg/dL and 159 mg/dL.

Consider `N[C@@H]1C[C@H]1c1ccccc1` (racemic) [Tranylcypromine], for which the concentration for half-maximal inhibition (IC50) was 0.99 ± 0.209 µM in series [3] (setting [6]), 0.605 µM in series [3] (setting [5]), 8.82 ± 2.43 µM in series [4] (setting [6]) and 6.59 µM in series [4] (setting [5]).

A word on the IC50: it is the midpoint of a concentration-inhibition curve.

Values taken from patent US20070280915A1, “Combination Therapies Employing A Composition Comprising A Hmg Coa Reductase Inhibitor And A Vitamin B6 Related Compound” (priority 2003, published 2007).
